Laboratory results: patent US12606543B2, “Indole derivatives as serotonergic agents useful for the treatment of disorders related thereto” (priority 2023, dated 2026)

How the values were obtained:
[1] = Liver microsomes stability, human; assay type: in vitro ADME; conditions: for CLint scaled at 2 μM: read-out: Scaled-up CLint
Description: (§1) The objective of this study was to estimate in vitro metabolic stability of exemplary compounds of Formula (I) or a pharmaceutically acceptable salt, solvate, and/or prodrug thereof in pooled human, male rat, and male mouse liver microsomes. The concentrations of compounds in reaction systems were evaluated by LC-MS/MS for estimating the stability in pooled human, male rat, and male mouse liver microsomes. The in vitro intrinsic clearances of test compounds were determined as well.
(§2) A master solution in the “Incubation Plate” containing phosphate buffer, ultra-pure H2O, MgCl2 solution and liver microsomes was made according to Table 33. The mixture was pre-warmed at 37° C. water bath for 5 minutes.
(§3) 40 μL of 10 mM nicotinamide adenine dinucleotide phosphate (NADPH) solution was added to each well. The final concentration of NADPH was 1 mM. The negative control samples were prepared by replacing NADPH with 40 μL of ultra-pure H2O. Samples were prepared in duplicate. Negative controls were prepared in singlet.
(§4) The reaction was started with the addition of 4 μL of 200 μM exemplary test compounds of the disclosure or control compounds to each master solution to get the final concentration of 2 μM. This study was performed in duplicate.
(§5) Aliquots of 50 μL were taken from the reaction solution at 0, 15, 30, 45, and 60 minutes. The reaction solutions were stopped by the addition of 4 volumes of cold methanol with IS (100 nM alprazolam, 200 nM imipramine, 200 nM labetalol, and 2 μM ketoprofen). Samples were centrifuged at 3,220 g for 40 minutes. Aliquot of 90 μL of the supernatant was mixed with 90 μL of ultra-pure H2O and then was used for LC-MS/MS analysis.
(§6) LC/MS analysis was performed for all samples from this study using a Shimadzu liquid chromatograph separation system equipped with degasser DGU-20A5R; solvent delivery unit LC-30AD; system controller SIL-30AC; column oven CTO-30A; CTC Analytics HTC PAL System. Mass spectrometric analysis was performed using a Triple Quad™ 5500 instrument.
(§7) All calculations were carried out using Microsoft Excel. Peak area ratios of test compound to internal standard (listed in the below table) were determined from extracted ion chromatograms.
(§8) All calculations were carried out using Microsoft Excel. Peak areas were determined from extracted ion chromatograms. The slope value, k, was determined by linear regression of the natural logarithm of the remaining percentage of the parent drug vs. incubation time curve.
(§9) The in vitro half-life (in vitro t1/2) was determined from the slope value:
(§10) Conversion of the in vitro t1/2 (min) into the in vitro intrinsic clearance (in vitro CLint, in μL/min/mg proteins) was done using the following equation (mean of duplicate determinations): […]
(§11) The objective of this study was to estimate in vitro metabolic stability of exemplary compounds of Formula (I) or a pharmaceutically acceptable salt, solvate and/or prodrug thereof in pooled human, male rat and male mouse liver microsomes. The concentrations of compounds in reaction systems were evaluated by LC-MS/MS for estimating the stability in pooled human, male rat and male mouse liver microsomes. The in vitro intrinsic clearances of test compounds were determined as well.
(§12) A master solution in the “Incubation Plate” containing phosphate buffer, ultra-pure H2O, MgCl2 solution and liver microsomes was made according to Table 67. The mixture was pre-warmed at 37° C. water bath for 5 minutes.
(§13) 40 μL of 10 mM NADPH solution was added to each well. The final concentration of NADPH was 1 mM. The negative control samples were prepared by replacing NADPH with 40 μL of ultra-pure H2O. Samples were prepared in duplicate. Negative controls were prepared in singlet
Aliquots of 50 μL were taken from the reaction solution at 0, 15, 30, 45 and 60 minutes. The reaction solutions were stopped by the addition of 4 volumes of cold methanol with IS (100 nM alprazolam, 200 nM imipramine, 200 nM labetalol and 2 μM ketoprofen).

[2] = Liver microsomes stability, mouse; assay type: in vitro ADME; conditions: for half-life at 2 μM / microsomal CLint at 2 μM / CLint scaled at 2 μM: male; for CLint scaled at 2 μM: read-out: Scaled-up CLint
Description: as §1, §2, §3, §4, §5, §6, §7, §8, §9, §10, §11, §12, §13
Aliquots of 50 μL were taken from the reaction solution at 0, 15, 30, 45 and 60 minutes. The reaction solutions were stopped by the addition of 4 volumes of cold methanol with IS (100 nM alprazolam, 200 nM imipramine, 200 nM labetalol and 2 μM ketoprofen). […]

[3] = Plasma protein binding by equilibrium dialysis, rat; conditions: for fraction unbound at 6 h, 1 μM / recovery at 6 h, 1 µM: rat; for fraction unbound at 6 h, 1 μM: plasma
Description: 1. The Frozen Plasma (Stored at −80° C.) was Thawed Immediately in a 37° C. Water Bath.
The working solution of test compounds and control compound was prepared in DMSO at the concentration of 200 μM, and then the working solution was spiked into plasma. The final concentration of compound was 1 μM. The final concentration of DMSO was 0.5%. Ketoconazole was used as positive control in the assay.
The dialysis membranes were soaked in ultrapure water for 60 minutes to separate strips, then in 20% ethanol for 20 minutes, finally in dialysis buffer for 20 minutes.
The dialysis set up was assembled according to the manufacturer's instruction. Each Cell was with 150 μL of plasma sample and dialyzed against equal volume of dialysis buffer (PBS). The assay was performed in duplicate. The dialysis plate was sealed and incubated in an incubator at 37° C. with 5% CO2 at 100 rpm for 6 hours. At the end of incubation, 50 μL of samples from both buffer and plasma chambers were transferred to wells of a 96-well plate.
50 μL of plasma was added to each buffer samples and an equal volume of PBS was supplemented to the collected plasma sample. 400 μL of precipitation buffer acetonitrile containing internal standards (IS, 200 nM labetalol, 100 nM tolbutamide and 100 nM ketoprofen) was added to precipitate protein and release compounds. Samples were vortexed for 2 minutes and centrifuged for 30 minutes at 3,220 g. Aliquot of 50 μL of the supernatant was diluted by 150 μL acetonitrile containing internal standards: ultra-pure H2O=1:1, and the mixture was used for LC-MS/MS analysis.
All calculations were carried out using Microsoft Excel. The concentrations of test compounds in the buffer and plasma chambers were determined from peak area ratios. The percentages of bound compound were calculated as follows: […]
The working solution of test compounds and control compound was prepared in DMSO at the concentration of 200 μM, and then the working solution was spiked into plasma. The final concentration of compound was […]. The final concentration of DMSO was 0.5%. Ketoconazole was used as positive control in the assay.

[4] = human liver microsomes, 2 μM compound, 0.5 mg/mL microsomes
[5] = human liver microsomes, With Cofactors, 0 min
[6] = human liver microsomes, With Cofactors, 30 min
[7] = human liver microsomes, With Cofactors, 60 min
[8] = human liver microsomes, Without Cofactors, 0 min
[9] = human liver microsomes, Without Cofactors, 30 min
[10] = human liver microsomes, Without Cofactors, 60 min
[11] = pooled liver microsomes, mouse liver microsomes, 2 μM compound, 0.5 mg/mL microsomes
[12] = mouse liver microsomes, With Cofactors, 0 min
[13] = mouse liver microsomes, With Cofactors, 30 min
[14] = mouse liver microsomes, With Cofactors, 60 min
[15] = mouse liver microsomes, Without Cofactors, 0 min
[16] = mouse liver microsomes, Without Cofactors, 30 min
[17] = mouse liver microsomes, Without Cofactors, 60 min
[18] = Human liver microsomes, 2 μM, 0.5 mg/mL, NADPH

For `[2H]C([2H])(c1c[nH]c2ccc(OCCCCN3C(=O)c4ccccc4C3=O)cc12)[C@H]1CCCN1C([2H])([2H])[2H]` [(R) I-244, (R)-2-(4-((3-((1-(Methyl-d3)pyrrolidin-2-yl)methyl-d2)-1H-indol-5-yl)oxy)butyl)isoindoline-1,3-dione], the “Predicted hepatic CL” value ([1]; human liver microsomes) was 19.32 mL/min/kg, the half-life at 2 μM [1, 4] was 5.98 min and the microsomal CLint at 2 μM [1, 4] was 232 µL/min/mg. The “Remaining Percentage” value [1, 5] was 100.00%, the “Remaining Percentage” value [1, 6] was 3.10% and the “Remaining Percentage” value [1, 7] was 0.00%. For the same compound, the “Remaining Percentage” value [1, 8] was 100.00%, the “Remaining Percentage” value [1, 9] was 94.44% and the “Remaining Percentage” value [1, 10] was 88.07%. For the same compound, the CLint scaled at 2 μM ([1]; human liver microsomes) was 290 mL/min/kg, the half-life at 2 μM [2, 11] was < 4.51 min and the microsomal CLint at 2 μM [2, 11] was > 307 µL/min/mg. For the same compound, the CLint scaled at 2 μM ([2]; mouse liver microsomes) was > 1340 mL/min/kg, the “Predicted hepatic CL” value ([2]; mouse liver microsomes) was >84.35 mL/min/kg and the “Remaining Percentage” value [2, 12] was 100.00%. For the same compound, the “Remaining Percentage” value [2, 13] was 0.00%, the “Remaining Percentage” value [2, 14] was 0.00% and the “Remaining Percentage” value [2, 15] was 100.00%. The “Remaining Percentage” value [2, 16] was 98.38%, the “Remaining Percentage” value [2, 17] was 86.59% and the fraction unbound at 6 h, 1 μM ([3]; SD) was 0.19. The recovery at 6 h, 1 µM ([3]; Sprague-Dawley (SD)) was 86.5% and the “% Remaining @ 6 hours” value ([3]; rat plasma) was 85.45%.
In the case of `CSc1ccc2[nH]cc(C[C@H]3CCCN3C)c2c1` [(R) I-1, (R)-3-((1-Methylpyrrolidin-2-yl)methyl)-5-(methylthio)-1H-indole], the “Predicted hepatic CL” value ([1]; Human liver microsomes) is reported as 16.09 mL/min/kg, the half-life at 2 μM [1, 18] is reported as 24 min and the microsomal CLint at 2 μM [1, 18] is reported as 57.7 µL/min/mg. For the same compound, the CLint scaled at 2 μM ([1]; Human liver microsomes) was 72.3 mL/min/kg, the “Remaining Percentage (%) 0 min” value [1, 5] was 100.00% and the “Remaining Percentage (%) 30 min” value [1, 6] was 50.51%. For the same compound, the “Remaining Percentage (%) 60 min” value [1, 7] was 17.72%, the “Remaining Percentage (%) 0 min” value [1, 8] was 100.00% and the “Remaining Percentage (%) 30 min” value [1, 9] was 101.47%. For the same compound, the “Remaining Percentage (%) 60 min” value [1, 10] was 97.56%, the “Predicted hepatic CL” value ([2]; Mouse liver microsomes) was >84.35 mL/min/kg and the half-life at 2 μM ([2]; Mouse liver microsomes, 2 μM, 0.5 mg/mL, NADPH, <4.51 if % remaining at 30 min below 1%) was < 4.51 min. The microsomal CLint at 2 μM ([2]; Mouse liver microsomes, 2 μM, 0.5 mg/mL, NADPH, >307.01 if % remaining at 30 min below 1%) was > 307 µL/min/mg, the CLint scaled at 2 μM ([2]; mouse liver microsomes) was > 1340 mL/min/kg and the “Remaining Percentage (%) 0 min” value [2, 12] was 100.00%. For the same compound, the “Remaining Percentage (%) 30 min” value [2, 13] was 0.15%, the “Remaining Percentage (%) 60 min” value [2, 14] was 0.23% and the “Remaining Percentage (%) 0 min” value [2, 15] was 100.00%. The “Remaining Percentage (%) 30 min” value [2, 16] was 98.55%, the “Remaining Percentage (%) 60 min” value [2, 17] was 103.02% and the “% Remaining @ 6 hours” value ([3]; Rat plasma, 1 μM, 37° C.) was 105.76%. The recovery at 6 h, 1 µM ([3]; SD) was 103% and the fraction unbound at 6 h, 1 μM ([3]; Sprague-Dawley) was 0.534.
For `[2H]C([2H])(c1c[nH]c2ccc(OCCCCCN3C(=O)c4ccccc4C3=O)cc12)[C@H]1CCCN1C([2H])([2H])[2H]` [(R) I-245, (R)-2-(5-((3-((1-(Methyl-d3)pyrrolidin-2-yl)methyl-d2)-1H-indol-5-yl)oxy)pentyl)isoindoline-1,3-dione], the “Predicted hepatic CL” value ([1]; human liver microsomes) was 18.11 mL/min/kg, the half-life at 2 μM [1, 4] was 12 min and the microsomal CLint at 2 μM [1, 4] was 115 µL/min/mg. For the same compound, the “Remaining Percentage” value [1, 5] was 100.00%, the “Remaining Percentage” value [1, 6] was 14.62% and the “Remaining Percentage” value [1, 7] was 3.13%. The “Remaining Percentage” value [1, 8] was 100.00%, the “Remaining Percentage” value [1, 9] was 101.09% and the “Remaining Percentage” value [1, 10] was 98.91%. The CLint scaled at 2 μM ([1]; human liver microsomes) was 145 mL/min/kg, the half-life at 2 μM [2, 11] was 5.12 min and the microsomal CLint at 2 μM [2, 11] was 271 µL/min/mg. The CLint scaled at 2 μM ([2]; mouse liver microsomes) was 1180 mL/min/kg, the “Predicted hepatic CL” value ([2]; mouse liver microsomes) was 83.65 mL/min/kg and the “Remaining Percentage” value [2, 12] was 100.00%. The “Remaining Percentage” value [2, 13] was 1.72%, the “Remaining Percentage” value [2, 14] was 0.25% and the “Remaining Percentage” value [2, 15] was 100.00%. For the same compound, the “Remaining Percentage” value [2, 16] was 100.00% and the “Remaining Percentage” value [2, 17] was 93.17%.
In the case of `[2H]C([2H])(c1c[nH]c2ccc(OCCCCCN3C(=O)C4CCCCC4C3=O)cc12)[C@H]1CCCN1C([2H])([2H])[2H]` (mixture of isomers) [Rac (R) I-248], the “Predicted hepatic CL” value ([1]; human liver microsomes) is reported as >19.64 mL/min/kg, the half-life at 2 μM [1, 4] is reported as < 4.51 min and the microsomal CLint at 2 μM [1, 4] is reported as > 307 µL/min/mg. The “Remaining Percentage” value [1, 5] was 100.00%, the “Remaining Percentage” value [1, 6] was 0.04% and the “Remaining Percentage” value [1, 7] was 0.00%. For the same compound, the “Remaining Percentage” value [1, 8] was 100.00%, the “Remaining Percentage” value [1, 9] was 100.47% and the “Remaining Percentage” value [1, 10] was 98.60%. For the same compound, the CLint scaled at 2 μM ([1]; human liver microsomes) was > 385 mL/min/kg, the half-life at 2 μM [2, 11] was < 4.51 min and the microsomal CLint at 2 μM [2, 11] was > 307 µL/min/mg. For the same compound, the CLint scaled at 2 μM ([2]; mouse liver microsomes) was > 1340 mL/min/kg, the “Predicted hepatic CL” value ([2]; mouse liver microsomes) was >84.35 mL/min/kg and the “Remaining Percentage” value [2, 12] was 100.00%. The “Remaining Percentage” value [2, 13] was 0.15%, the “Remaining Percentage” value [2, 14] was 0.19% and the “Remaining Percentage” value [2, 15] was 100.00%. The “Remaining Percentage” value [2, 16] was 99.54% and the “Remaining Percentage” value [2, 17] was 95.85%.
